The source of these data is US7919488B2, “Therapeutic compounds” (Pfizer Inc., priority 2006, dated 2011).

Format in all cases: biochemical
Assay [1] deals with T1, CYP3A4 (Homo sapiens, UniProt P08684).
T1 construct: 0.1 mg/mL human liver microsomes; from tissue; host or cells: human liver microsomes
Nature of the assay: IC50 against CYP3A4 by inhibition of testosterone metabolism in human liver microsomes. The note with it: 0.1 mg/mL human liver microsomes, 25 μM testosterone, 1 mM NADPH, 6-β-OH-testosterone production, eight minutes; read-out: IC50, μM (HLM, testosterone). Here is the method:
2. Determination of IC50 Against CYP3A4 by Measurement of Inhibition of Testosterone Metabolism
This assay was performed using a standard 96 well plate design. […] Quantitation of metabolite peak area ratio against an internal standard is determined by LC-MS/MS analysis. The production of 6-β-OH-testosterone from testosterone metabolism is determined after incubation for eight minutes by comparison to a standard curve generated for the metabolite
(§1) Samples were analyzed in the MRM mode using a Sciex API 3000 mass spectrometer (Applied Biosystems, Foster City, Calif.) with a Paradigm MS4 binary pump (Michrom BioResources Inc., Auburn, Calif.) and a LEAP CTC PAL autosampler (LEAP Technologies, Carrboro, N.C.). A Phenomenex Synergi, 4μ, Polar-RP, 10×2.0 mm column (Phenomenex, Torrance, Calif.) was used for separation with a mobile phase composition of: 0.1% formic acid in water (A) and: 0.1% formic acid in methanol (B). The following gradient was used: […]
(§2) The sample injection volume was 10 μL and flow was split post-column with 0.4 mL/min going to the mass spectrometer. Analysis was performed using the following API 3000 mass spectrometer settings: […]

For assay [2], the target named is T1, CYP3A4. The assay can be described thus: IC50 against CYP3A4 by inhibition of midazolam metabolism in human liver microsomes. The following applies: 0.1 mg/mL human liver microsomes, 2 μM midazolam, 1 mM NADPH, 1-hydroxymidazolam production, eight minutes; read-out: IC50, μM (HLM, midazolam). Here is the method: 3. Determination of IC50 Against CYP3A4 by Measurement of Inhibition of Midazolam Metabolism
This assay was performed using a standard 96 well plate design. […] The incubation substrate mix contains 2 μM midazolam, 0.1 mg/mL human liver microsomes, 1 mM NADPH, and potassium phosphate buffer (100 mM, pH 7.4). Quantitation of metabolite peak area ratio against internal standard is determined by LC-MS/MS analysis. The production of 1-hydroxymidazolam from midazolam metabolism is determined after incubation for eight minutes by comparison to a standard curve generated for the metabolite.
as §1, §2

Assay [3] addresses T2, recombinant CYP3A4-b5 enzyme (Baculosomes®) (Homo sapiens, UniProt P08684).
T2 construct: purchased Invitrogen (Carlsbad, Calif.)
The assay can be described thus: Kiapp against recombinant CYP3A4 enzyme (Baculosomes), BFC substrate. The following applies: recombinant CYP3A4-b5 (Invitrogen), 5 uM BFC, 200 uM NADPH, pre-incubation at least 30 minutes, pH 7.0, room temperature. Here is the method: 1. Determination of Compound Kiapp
A determination of the Kiapp of the compounds of the invention against recombinant CYP3A4 enzyme was performed as follows. The assay was performed in a 100 mM sodium phosphate buffer pH 7.0, 5 mM TCEP and containing 2% dimethylformamide (final concentration) upon addition of substrate and inhibitor. A typical reaction for the determination of Kiapp values was carried at room temperature in a solid black Costar u-bottom 96-well polypropylene plate. […] When pre-incubation was completed (˜30 min), the reaction was initiated by adding NADPH (200 uM, final concentration), and 7-benzyloxy-4-(trifluoromethyl)-coumarin (BFC) (5 uM, final concentration). The oxidation of the coumarin substrate was recorded by a 96-well plate reader POLARstar (BMG LABTECH, Offenburg, Germany).
The initial reaction velocities were measured during the first 5 min of the reaction when the release of the fluorescent product is linear with time, in the absence and in the presence of various concentrations of inhibitors.
The fluorescent substrate BFC was purchased from Sigma (St Louis, Mo.). Two commercial sources of recombinant enzymes were used in this study: recombinant CYP3A4-b5 enzyme (Baculosomes®) was purchased from Invitrogen (Carlsbad, Calif.) and the recombinant CYP3A4+b5 enzyme (Supersomes®) was purchased from BD Biosciences (Woburn, Mass.).

For orientation: IC50 means the concentration that gives 50% inhibition.

T1 sequence (P08684 whole entry): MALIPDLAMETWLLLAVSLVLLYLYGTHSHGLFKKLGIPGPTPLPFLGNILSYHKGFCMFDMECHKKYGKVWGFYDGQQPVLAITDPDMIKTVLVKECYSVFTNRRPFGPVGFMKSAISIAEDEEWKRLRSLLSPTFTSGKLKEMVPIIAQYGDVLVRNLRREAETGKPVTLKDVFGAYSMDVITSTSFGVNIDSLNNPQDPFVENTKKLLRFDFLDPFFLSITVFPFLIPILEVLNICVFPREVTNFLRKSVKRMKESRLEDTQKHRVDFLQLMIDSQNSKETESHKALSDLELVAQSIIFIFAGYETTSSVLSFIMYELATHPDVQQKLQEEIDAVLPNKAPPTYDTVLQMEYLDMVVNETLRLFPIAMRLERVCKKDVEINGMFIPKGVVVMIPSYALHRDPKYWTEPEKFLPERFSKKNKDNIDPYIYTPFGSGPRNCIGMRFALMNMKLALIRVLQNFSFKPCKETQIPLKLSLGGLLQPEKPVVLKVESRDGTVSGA
T2 sequence (P08684 whole entry): as above

With `O=C(Cn1nc(-c2ccncc2)cc1Cc1ccc(F)cc1)NCc1ncc(F)cn1` [Example 81, 2-[5-(4-fluorobenzyl)-3-pyridin-4-yl-1H-pyrazol-1-yl]-N-[(5-fluoropyrimidin-2-yl)methyl]acetamide], the 50% inhibitory concentration (IC50) came to 0.068 µM in assay [1] and 0.063 µM in assay [2]. In addition, the Ki in assay [3] worked out at 0.124 µM.

On to `CCCN(C)C1(C(N)=O)CCN(C(=O)Cn2nc(-c3ccncc3)cc2Cc2ccc(F)cc2)CC1` [Example 92, 1-{[5-(4-fluorobenzyl)-3-pyridin-4-yl-1H-pyrazol-1-yl]acetyl}-4-[methyl(propyl)amino] piperidine-4-carboxamide], for which the IC50 in assay [1] was 0.015 µM; in assay [2] it was 0.007 µM. Further, the Ki in assay [3] came out at 0.0241 µM.

As for `CC(C)C(=O)N(C)C1CCN(C(=O)Cn2nc(-c3ccncc3)cc2Cc2ccc(F)cc2)CC1` [Example 11, N-(1-{[5-(4-fluorobenzyl)-3-pyridin-4-yl-1H-pyrazol-1-yl]acetyl}piperidin-4-yl)-N,2-dimethylpropanamide], the IC50 in assay [1] is 0.012 µM; in assay [2] it was < 0.003 µM. Further, in assay [3], the Ki was 0.00841 µM.

For `CN(C(=O)C1CC1)C1CCN(C(=O)Cn2nc(-c3ccncc3)cc2Cc2ccc(F)cc2)CC1` [Example 13, N-(1-{[5-(4-fluorobenzyl)-3-pyridin-4-yl-1H-pyrazol-1-yl]acetyl}piperidin-4-yl)-N-methylcyclopropanecarboxamide], the IC50 is 0.009 µM in assay [1] and < 0.00346 µM in assay [2]. Further, the Ki in assay [3] was determined as 0.0111 µM.

On to `O=C(Cn1nc(-c2c[nH]cn2)cc1Cc1ccc(F)cc1)N1CCC[C@@H](O)C1` [Example 40, (3R)-1-{[5-(4-fluorobenzyl)-3-(1H-imidazol-4-yl)-1H-pyrazol-1-yl]acetyl}piperidin-3-ol], for which the half-maximal inhibitory concentration (IC50) was > 0.75 µM in assay [1] and 0.446 µM in assay [2]. In addition, the Ki in assay [3] is > 1 µM.

Take `O=C(Cn1nc(-c2ccncc2)cc1Cc1ccc(F)cc1)N1CC[C@@H](N2CCOCC2)C1` [Example 103]: the concentration for half-maximal inhibition (IC50) in assay [1] was determined as 0.068 µM; in assay [2], 0.025 µM. Besides, in assay [3], the Ki was found to be 0.106 µM.

For the compound `O=C(Cn1nc(-c2ccncc2)cc1Cc1ccc(F)cc1)N1CCC[C@H]1CO` [Example 77, [(2S)-1-{[5-(4-fluorobenzyl)-3-pyridin-4-yl-1H-pyrazol-1-yl]acetyl}pyrrolidin-2-yl]methanol], the results for the IC50 in assay [1] and in assay [2] were 0.0545 µM and 0.0511 µM, respectively. Further, the Ki in assay [3] is 0.166 µM.

With `NC1CCN(C(=O)Cn2nc(-c3ccncc3)cc2Cc2ccc(F)cc2)CC1` [Example 8, 1-{[5-(4-fluorobenzyl)-3-pyridin-4-yl-1H-pyrazol-1-yl]acetyl}piperidin-4-amine], the 50% inhibitory concentration (IC50) was 0.273 µM in assay [1] and 0.114 µM in assay [2]. Besides, the Ki in assay [3] is 0.547 µM.

Regarding `O=C(Cn1nc(-c2ccncc2)cc1Cc1ccc(F)cc1)N1CC(O)C1` [Example 98, 1-{[5-(4-fluorobenzyl)-3-pyridin-4-yl-1H-pyrazol-1-yl]acetyl}azetidin-3-ol], the half-inhibitory concentration (IC50) in assay [1] is 0.082 µM; in assay [2], 0.108 µM. Further, the Ki in assay [3] was 0.378 µM.

Consider `O=C(Cn1nc(-c2ccncc2)cc1Cc1ccc(F)cc1)N1CCC(N2CCCC2=O)CC1` [Example 5, 1(1-{[5-(4-fluorobenzyl)-3-pyridin-4-yl-1H-pyrazol-1-yl]acetyl}piperidin-4-yl)pyrrolidin-2-one], for which the values for the IC50 in assay [1] and in assay [2] were 0.033 µM and 0.01 µM, respectively. Moreover, the Ki in assay [3] is 0.085 µM.

`O=C(Cn1nc(-c2ccncc2)cc1Cc1ccc(F)cc1)N1CCNCC1` [Example 62, 1-{[5-(4-fluorobenzyl)-3-pyridin-4-yl-1H-pyrazol-1-yl]acetyl}piperazine]: the IC50 in assay [1] stood at 0.111 µM; in assay [2] it was 0.047 µM. Further, the Ki in assay [3] is 0.604 µM.

On to `Cc1nnc(Cn2nc(-c3ccncc3)cc2Cc2ccc(F)cc2)o1` [Example 28, 4-{5-(4-fluorobenzyl)-1-[(5-methyl-1,3,4-oxadiazol-2-yl)methyl]-1H-pyrazol-3-yl}pyridine], for which the figures for the IC50 in assay [1] and in assay [2] were 0.0305 µM and 0.0792 µM, respectively. Besides, the Ki in assay [3] turned out to be 0.608 µM.

Take `CCNC(=O)N(C)C1CCN(C(=O)Cn2nc(-c3ccncc3)cc2Cc2ccc(F)cc2)CC1` [Example 115, 3-ethyl-1-(1-{[5-(4-fluorobenzyl)-3-pyridin-4-yl-1H-pyrazol-1-yl]acetyl}piperidin-4-yl)-1-methylurea]: the IC50 in assay [1] turned out to be 0.015 µM; in assay [2], 0.004 µM. Further, the Ki in assay [3] was 0.0338 µM.

In the case of `O=C(Cn1nc(-c2ccncc2)cc1Cc1ccc(F)cc1)NC1CCC1` [Example 53, N-cyclobutyl-2-[5-(4-fluorobenzyl)-3-pyridin-4-yl-1H-pyrazol-1-yl]acetamide], the IC50 worked out at 0.095 µM in assay [1] and 0.028 µM in assay [2]. The Ki in assay [3] was 0.034 µM.

Turning to `O=C(Cn1nc(-c2ccncc2)cc1Cc1ccc(F)cc1)N1CCC[C@@H]1CO` [Example 75, [(2R)-1-{[5-(4-fluorobenzyl)-3-pyridin-4-yl-1H-pyrazol-1-yl]acetyl}pyrrolidin-2-yl]methanol], the IC50 in assay [1] turned out to be 0.0215 µM; in assay [2] it was 0.0175 µM. Moreover, the Ki in assay [3] was 0.118 µM.

Consider `NC(=O)c1noc(Cn2nc(-c3ccncc3)cc2Cc2ccc(F)cc2)n1` [Example 69, 5-{[5-(4-fluorobenzyl)-3-pyridin-4-yl-1H-pyrazol-1-yl]methyl}-1,2,4-oxadiazole-3-carboxamide], for which the IC50 in assay [1] was determined as 0.0203 µM; in assay [2] it was 0.0555 µM. Besides, the Ki in assay [3] worked out at 0.18 µM.

For `CC(O)Cn1nc(-c2ccncc2)cc1Cc1ccc(F)cc1` (stereo not drawn) [Example 52, 1-[5-(4-fluorobenzyl)-3-pyridin-4-yl-1H-pyrazol-1-yl]propan-2-ol], the figures for the IC50 in assay [1] and in assay [2] were 0.056 µM and 0.071 µM, respectively. Also, the Ki in assay [3] was found to be 0.175 µM.

Take `CC(Cc1cnccn1)NC(=O)Cn1nc(-c2ccncc2)cc1Cc1ccc(F)cc1` (stereo not drawn) [Example 82, 2-[5-(4-fluorobenzyl)-3-pyridin-4-yl-1H-pyrazol-1-yl]-N-(1-methyl-2-pyrazin-2-ylethyl)acetamide]: the IC50 in assay [1] was found to be 0.025 µM; in assay [2] it was 0.023 µM. The Ki in assay [3] is 0.109 µM.

As for `O=C(c1ncc[nH]1)N1CC(n2nc(-c3ccncc3)cc2Cc2ccc(F)cc2)C1` [Example 24, 4-{5-(4-fluorobenzyl)-1-[1-(1H-imidazol-2-ylcarbonyl)azetidin-3-yl]-1H-pyrazol-3-yl}pyridine], the IC50 in assay [1] worked out at 0.047 µM; in assay [2], 0.027 µM. The Ki in assay [3] came to 0.0772 µM.

Consider `CCOC(=O)N(C)C1CCN(C(=O)Cn2nc(-c3ccncc3)cc2Cc2ccc(F)cc2)CC1` [Example 113], for which the IC50 in assay [1] turned out to be 0.011 µM; in assay [2], 0.009 µM. Moreover, the Ki in assay [3] was 0.00676 µM.

Take `C[C@H](O)CNC(=O)Cn1nc(-c2ccncc2)cc1Cc1ccc(F)cc1` [Example 64, 2-[5-(4-fluorobenzyl)-3-pyridin-4-yl-1H-pyrazol-1-yl]-N-[(2S)-2-hydroxypropyl]acetamide]: the results for the IC50 in assay [1] and in assay [2] were 0.032 µM and 0.028 µM, respectively. Further, the Ki in assay [3] worked out at 0.185 µM.

With `NC(=O)[C@@H]1CCC[C@@H]1NC(=O)Cn1nc(-c2ccncc2)cc1Cc1ccc(F)cc1` [Example 84, (1R,2S)-2-({[5-(4-fluorobenzyl)-3-pyridin-4-yl-1H-pyrazol-1-yl]acetyl}amino)cyclo-pentanecarboxamide], the IC50 in assay [1] stood at 0.041 µM; in assay [2], 0.021 µM. The Ki in assay [3] stood at 0.156 µM.
